Test results reported in patent US20250304620A1, “ANTIMICROBIAL PEPTIDE AND APPLICATION THEREOF” (priority 2023, published 2025).
≈ marks a conversion by molar mass, not a printed value. Marks after values point to notes of the source that are not given here. Non-standard residues stand in square brackets, D forms with d. Residues, ends and D or L forms follow the SMILES beside them. dPhe(3,4-Cl2) = N[C@H](Cc1ccc(Cl)c(Cl)c1)C(=O)O; dPhe(4-F) = N[C@H](Cc1ccc(F)cc1)C(=O)O; d2Nal = N[C@H](Cc1ccc2ccccc2c1)C(=O)O

Experiments:
[1] = tested on: Methicillin-resistant Staphylococcus aureus (MRSA); type: cell-based; details: Methicillin-resistant
Procedure, shortened: (§1)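 Five parallel experiments per strain; values are MICs from CLSI-standard broth microdilution of peptides in twofold steps.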

[2] = tested on: carbapenem-resistant Escherichia coli (CREC); type: cell-based; details: carbapenem-resistant (CREC)
Procedure, shortened: as §1

[3] = tested on: carbapenem-resistant Klebsiella pneumoniae (CRKP); type: cell-based; details: carbapenem-resistant (CRKP)
Procedure, shortened: as §1

[4] = tested on: carbapenem-resistant Pseudomonas aeruginosa (CRPA); type: cell-based; details: carbapenem-resistant (CRPA)
Procedure, shortened: as §1

[5] = tested on: vancomycin-resistant Enterococcus (VRE); type: cell-based
Procedure, shortened: as §1

rabbit red blood cells = type: cell-based; details: red cells of rabbit, 1 h
[6] = tested on: Pseudomonas aeruginosa ATCC 27853; test: Injectable formulations on mice infected with peritonitis; type: in vivo, ICR mice; details: twice a day for 3 days; for Number of mice that died on each day after infection: day 1 / Number of mice that died on each day after infection: day 2 / Number of mice that died on each day after infection: day 3 / Number of mice that died on each day after infection: day 4 / Number of mice that died on each day after infection: day 5 / Average survival times (Days): n = 10; for Average survival times (Days): observed for 14 d
Procedure, shortened: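 Survival readout: deaths and survival time tracked for 14 d. Treatment was tail-vein injection by body weight, twice a day for 3 consecutive days, starting right after intraperitoneal challenge with 0.2 mL of 1×10^9 CFU/mL P. aeruginosa ATCC 27853 in male and female ICR mice.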

Row | SMILES | MIC MRSA [1] [µg/mL] | MIC CREC [2] [µg/mL] | MIC CRKP [3] [µg/mL] | MIC CRPA [4] [µg/mL] | MIC VRE [5] [µg/mL] | MHC (minimum hemolytic concentration, lowest concentration causing 10% hemolysis) (rabbit red blood cells) [µg/mL] | Number of mice that died on each day after infection: day 1 ([6]; 1 mg/kg via tail vein) [Mouse] | Number of mice that died on each day after infection: day 2 ([6]; 1 mg/kg via tail vein) [Mouse] | Number of mice that died on each day after infection: day 3 ([6]; 1 mg/kg via tail vein) [Mouse] | Number of mice that died on each day after infection: day 4 ([6]; 1 mg/kg via tail vein) [Mouse] | Number of mice that died on each day after infection: day 5 ([6]; 1 mg/kg via tail vein) [Mouse] | Average survival times (Days) ([6]; 1 mg/kg via tail vein) | also measured
1 | CC(=O)N[C@H](CCCNC(=N)N)C(=O)N[C@H](CCCNC(=N)N)C(=O)N[C@H](CC(C)C)C(=O)N[C@H](CC(C)C)C(=O)N[C@H](Cc1ccc2ccccc2c1)C(=O)N[C@H](CCCNC(=N)N)C(=O)N[C@H](CC(C)C)C(=O)N[C@H](CCCNC(=N)N)C(=O)N[C@H](Cc1ccc2ccccc2c1)C(=O)N[C@H](CCCNC(=N)N)C(=O)N[C@H](CCCNC(=N)N)C(N)=O [LV-1] (Ac-[dR][dR][dL][dL][d2Nal][dR][dL][dR][d2Nal][dR][dR]-NH2) | 4 (≈ 2.31 µM) | 2 (≈ 1.16 µM) | 2 (≈ 1.16 µM) | 4 (≈ 2.31 µM) | 4 (≈ 2.31 µM) | >1000 | 0 | 1 | 1 | 1 | 0 | 10.7**** Days | Number of mice that died on each day after infection: day 1 ([6]; 0.2 mg/kg via tail vein): 1 Mouse; Number of mice that died on each day after infection: day 2 ([6]; 0.2 mg/kg via tail vein): 2 Mouse; Number of mice that died on each day after infection: day 3 ([6]; 0.2 mg/kg via tail vein): 1 Mouse; Number of mice that died on each day after infection: day 4 ([6]; 0.2 mg/kg via tail vein): 1 Mouse; Number of mice that died on each day after infection: day 5 ([6]; 0.2 mg/kg via tail vein): 1 Mouse; Average survival times (Days) ([6]; 0.2 mg/kg via tail vein): 7.3** Days; Number of mice that died on each day after infection: day 1 ([6]; 5 mg/kg via tail vein): 2 Mouse; Number of mice that died on each day after infection: day 2 ([6]; 5 mg/kg via tail vein): 1 Mouse; Number of mice that died on each day after infection: day 3 ([6]; 5 mg/kg via tail vein): 1 Mouse; Number of mice that died on each day after infection: day 4 ([6]; 5 mg/kg via tail vein): 0 Mouse; Number of mice that died on each day after infection: day 5 ([6]; 5 mg/kg via tail vein): 0 Mouse; Average survival times (Days) ([6]; 5 mg/kg via tail vein): 9.1** Days; survival time of mice infected with Pseudomonas aeruginosa ([6]; tail vein, observed 14 d): superior to those of the Levofloxacin group
2 | CC(=O)N[C@H](CCCNC(=N)N)C(=O)N[C@H](CCCNC(=N)N)C(=O)N[C@H](CC(C)C)C(=O)N[C@H](CC(C)C)C(=O)N[C@H](Cc1ccc2ccccc2c1)C(=O)N[C@H](CCCNC(=N)N)C(=O)N[C@H](CC(C)C)C(=O)N[C@H](CCCCN)C(=O)N[C@H](Cc1ccc2ccccc2c1)C(=O)N[C@H](CCCNC(=N)N)C(=O)N[C@H](CCCCN)C(N)=O [LV-21] (Ac-[dR][dR][dL][dL][d2Nal][dR][dL][dK][d2Nal][dR][dK]-NH2) | 4 (≈ 2.39 µM) | 2 (≈ 1.19 µM) | 2 (≈ 1.19 µM) | 4 (≈ 2.39 µM) | 2 (≈ 1.19 µM) | >1000 | 2 | 0 | 2 | 0 | 0 | 9.2*** Days | 
3 | CC(=O)N[C@H](CCCNC(=N)N)C(=O)N[C@H](CCCCN)C(=O)N[C@H](C)C(=O)N[C@H](C)C(=O)N[C@H](Cc1ccc2ccccc2c1)C(=O)N[C@H](CCCNC(=N)N)C(=O)N[C@H](C)C(=O)N[C@H](CCCCN)C(=O)N[C@H](Cc1ccc2ccccc2c1)C(=O)N[C@H](CCCNC(=N)N)C(=O)N[C@H](CCCCN)C(N)=O [LV-15] (Ac-[dR][dK][dA][dA][d2Nal][dR][dA][dK][d2Nal][dR][dK]-NH2) | 4 (≈ 2.63 µM) | 4 (≈ 2.63 µM) | 8 (≈ 5.26 µM) | 8 (≈ 5.26 µM) | 8 (≈ 5.26 µM) | >1000 | 1 | 2 | 0 | 2 | 0 | 8.3** Days | 
4 | CC(=O)N[C@H](CCCNC(=N)N)C(=O)N[C@H](CCCCN)C(=O)N[C@H](CC(C)C)C(=O)N[C@H](CC(C)C)C(=O)N[C@H](Cc1ccc(Cl)c(Cl)c1)C(=O)N[C@H](CCCCN)C(=O)N[C@H](CC(C)C)C(=O)N[C@H](CCCCN)C(=O)N[C@H](Cc1ccc(Cl)c(Cl)c1)C(=O)N[C@H](CCCCN)C(=O)N[C@H](CCCNC(=N)N)C(N)=O [LV-8] (Ac-[dR][dK][dL][dL][dPhe(3,4-Cl2)][dK][dL][dK][dPhe(3,4-Cl2)][dK][dR]-NH2) | 4 (≈ 2.42 µM) | 4 (≈ 2.42 µM) | 2 (≈ 1.21 µM) | 8 (≈ 4.83 µM) | 8 (≈ 4.83 µM) | >1000 | 1 | 1 | 0 | 1 | 1 | 9.6*** Days | 
5 | CC(=O)N[C@H](CCCNC(=N)N)C(=O)N[C@H](CCCCN)C(=O)N[C@H](CC(C)C)C(=O)N[C@H](CC(C)C)C(=O)N[C@H](Cc1ccc(F)cc1)C(=O)N[C@H](CCCCN)C(=O)N[C@H](CC(C)C)C(=O)N[C@H](CCCCN)C(=O)N[C@H](Cc1ccc(F)cc1)C(=O)N[C@H](CCCCN)C(=O)N[C@H](CCCNC(=N)N)C(N)=O [LV-5] (Ac-[dR][dK][dL][dL][dPhe(4-F)][dK][dL][dK][dPhe(4-F)][dK][dR]-NH2) | 4 (≈ 2.57 µM) | 8 (≈ 5.15 µM) | 4 (≈ 2.57 µM) | 4 (≈ 2.57 µM) | 8 (≈ 5.15 µM) | >1000 | 1 | 1 | 1 | 0 | 1 | 9.5*** Days | 
